From patent US12383571B2, “Method for enhancing tyrosinase inhibitory activity” (Jiangnan University, priority 2019, dated 2025) come the findings set out here.

This assay has as its system tyrosinase. In words: Determination of tyrosinase activity by spectrophotometry (L-dopa substrate, 475 nm). The note with it: single phenolic acid at 5 mM, other conditions as Example 1 (1.0 mg/mL protodioscin, 150° C. 30 min). Format: biochemical.

Structures are written as SMILES.

Protocol: A determining method of tyrosinase activity: spectrophotometry is employed, 2.8 ml of 2.5 mM L-dopa solution is taken as a substrate, 100 μL of treated inhibitor solution is taken, then 100 μL of 0.2 mg/mL tyrosinase solution is added for incubation at 30° C. for 15 min, and then a change in its light absorption value is measured at 475 nm, and taking tyrosinase activity without an inhibitor as 100%, a calculation formula is as follows: tyrosinase relative activity/%=(B2−B1)/(A2−A1)×100,
Where A1 and A2 represent light absorption values of a blank group at 0 min and 15 min, and B1 and B2 represent light absorption values of a sample at 0 min and 15 min. • 2.

With `O=C(O)c1cc(O)c(O)c(O)c1` [gallic acid], the “tyrosinase relative activity (%)” value is on record as 97.25%. Next, `O=C(O)C=Cc1ccccc1` [cinnamic acid]: 102.32%; `COc1cc(/C=C/C(=O)O)ccc1O` [ferulic acid]: 107.56%. Next, `O=c1c(O)c(-c2ccc(O)c(O)c2)oc2cc(O)cc(O)c12` [quercetin]: 80.69%; `COc1cc(-c2oc3cc(O)cc(O)c3c(=O)c2O)ccc1O` [isorhamnetin]: 82.52%.
